Patent US20120288885A1, “METHOD AND KIT FOR MEASURING ENZYMATIC ACTIVITIES OF VARIOUS CYTOCHROME P450 MOLECULE SPECIES COMPREHENSIVELY AND WITH HIGH EFFICIENCY” (NATIONAL INSTITUTE OF ADVANCED INDUSTRIAL SCIENCE AND …, priority 2009, published 2012)
Each block holds one compound with its values, some of them ahead of it.

How the values were obtained:
human CYP1A1 [1] = target: T1, human CYP1A1 (Homo sapiens, UniProt P04798); assay: Competitive assay between fluorogenic substrate (7-ER) and non-fluorogenic substrate using caged-G6P; format: biochemical; details: benzopyrene 0.1 and 1 μM; 7-ER 0.1 to 1.5 μM
T1 construct: made in house; host or cells: E. coli DH5alpha, membrane fraction
T1 sequence (P04798 1-512): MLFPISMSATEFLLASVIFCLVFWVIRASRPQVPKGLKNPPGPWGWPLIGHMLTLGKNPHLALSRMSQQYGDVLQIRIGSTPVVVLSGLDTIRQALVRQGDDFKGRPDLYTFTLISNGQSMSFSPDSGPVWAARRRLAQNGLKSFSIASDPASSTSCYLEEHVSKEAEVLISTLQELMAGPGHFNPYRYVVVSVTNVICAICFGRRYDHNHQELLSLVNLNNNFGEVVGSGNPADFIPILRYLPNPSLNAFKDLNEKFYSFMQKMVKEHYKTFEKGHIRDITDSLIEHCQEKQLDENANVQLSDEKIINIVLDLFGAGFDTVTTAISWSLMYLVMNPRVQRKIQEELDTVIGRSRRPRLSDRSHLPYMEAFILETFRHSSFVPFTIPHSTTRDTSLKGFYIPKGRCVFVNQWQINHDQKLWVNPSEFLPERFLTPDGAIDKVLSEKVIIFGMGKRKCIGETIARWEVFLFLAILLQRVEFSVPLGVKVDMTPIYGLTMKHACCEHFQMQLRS
Method: A competitive assay between a fluorogenic substrate (7-ER) and a non-fluorogenic substrate (benzopyrene) was conducted using caged-G6P. An aqueous solution obtained by mixing the following components was used as the reaction liquid: 50 μL of 1 M potassium phosphate buffer solution, 30 μL of 5 mM caged-G6P, 2.89 μL of 69.3 U/mL glucose-6-phosphate […], 15 μL of 100 mM magnesium chloride, 1 μL of 5 mM NADP aqueous solution, 10.25 μL of P450 membrane fractions (human CYP1A1), 5 μL of 0.1 M dithiothreitol, and 379.61 μL of ultrapure water. The 7-ER concentration was varied from 0.1 μM to 1.5 μM. The benzopyrene concentrations were 0.1 μM and 1 μM. After UV light irradiation, incubation was performed for 30 minutes to carry out the P450 enzymatic reaction. Thereafter, 25 μL of 30% trichloroacetic acid was added thereto to terminate the enzymatic reaction. By adding 500 μL of chloroform to the reaction liquid and stirring the mixture for 1 minute, the […] (7HR) generated by the reaction was extracted in chloroform. […] After centrifuging for 1 minute, the […] was transferred to a cuvette, and the fluorescence spectra thereof were measured under the following conditions. Excitation wavelength: 366 nm, fluorescence wavelength: 380 to 600 nm. The maximum fluorescence was used to quantify the 7HR. […]

human CYP1A1 [2] = target: T1, human CYP1A1; assay: Substrate metabolic activity on immobilized P450/oxygen sensor vertically integrated chip (fluorescence response of oxygen sensor); format: in vitro ADME; details: 0.5 mM chlortoluron
Method: A ruthenium complex (Ru(dpp)3Cl2) doped sol solution was prepared as described in Anal. Chem. 75 (2003) 2407-2413 with small modifications as follows. TEOS (0.29 mL) was mixed with 0.612 mL of octyl-triEOS, 0.625 mL of ethanol, and 0.2 mL of 0.1 M HCl by stirring for 1 hour at room temperature. Then, 1.725 mL of ethanol was added to the solution to dilute the sol in order to improve the quality of the oxygen sensing film to be ultimately formed. The solution was further stirred for 1 hour. To prepare an Ru(dpp)3Cl2 doped sol, 100 μL of 2 mM Ru(dpp)3Cl2 in ethanol was mixed with 300 μL of the above-mentioned sol solution. This solution was capped and stirred for 30 min, and 10 μL thereof was pipetted into each well of the microplate. The microplate was stored in the dark at room temperature for gelling and aging for 6 days. In order to increase the hydrophilicity of the surface of the oxygen sensor to improve the attachment with hydrogel, the surface of the microarrays was modified with poly (vinyl acetate) (PVAC).
Agarose was dissolved in deionized water to form a 1.3% (w/w) solution at 60° C. This solution was cooled to about 38° C. […] The microarrays were kept in a refrigerator at 4° C. until use.
TEOS sol was prepared by mixing 0.5 mL of TEOS, 0.25 mL of deionized water, and 12.5 μL of 0.1 M HCl and stirring for 3 hours to form a homogeneous sol. The sol was diluted four times with deionized water. […]
In order to measure the substrate metabolic activities using an immobilized P450/oxygen sensor vertically integrated chip (i.e., a chip comprising an immobilized P450 and an oxygen sensor vertically integrated therein), a study was conducted using immobilized human CYP1A1 as the P450 and chlortoluron (a herbicide) as a substrate. […] After the addition of the substrate solution into the microarrays, the microplate was quickly placed onto the platform of a microplate reader for the fluorescence measurement. Fluorescence intensity was recorded every 5 min for 3 hours.

CYP3A5 = target: T2, CYP3A5 (Homo sapiens, UniProt P20815); format: in vitro ADME
T2 construct: made in house; host or cells: E. coli membrane fraction (inferred from the pCW negative control and the general expression paragraph)
T2 sequence (P20815 whole entry): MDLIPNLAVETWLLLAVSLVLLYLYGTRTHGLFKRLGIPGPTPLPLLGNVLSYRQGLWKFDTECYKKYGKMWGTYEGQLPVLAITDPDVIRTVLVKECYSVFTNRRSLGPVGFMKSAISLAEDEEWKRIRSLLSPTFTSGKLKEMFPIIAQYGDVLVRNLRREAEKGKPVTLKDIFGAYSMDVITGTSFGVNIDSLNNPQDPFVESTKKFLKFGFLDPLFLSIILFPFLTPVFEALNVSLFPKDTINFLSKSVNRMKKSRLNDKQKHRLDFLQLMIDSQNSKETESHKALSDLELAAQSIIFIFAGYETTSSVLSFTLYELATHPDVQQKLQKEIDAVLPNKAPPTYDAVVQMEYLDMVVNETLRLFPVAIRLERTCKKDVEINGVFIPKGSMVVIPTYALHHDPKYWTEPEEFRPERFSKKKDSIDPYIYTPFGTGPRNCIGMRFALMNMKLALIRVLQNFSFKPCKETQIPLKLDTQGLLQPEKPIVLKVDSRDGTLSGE
Method: Using a 96-well microplate, the activity of various human P450 molecular species in oxygen sensor/immobilized P450 toward capsaicin was evaluated. The response to a solution with a substrate was compared to the response to a solution without a substrate and the activity of each molecular species was standardized. CYP2C9, CYP1A2, CYP2D6, CYP3A4, CYP2B6, CYP2C19(1A,1B), CYP2E1, CYP1A1, CYP2C8, CYP2W1, CYP4X1, CYP17A1, CYP27A1, CYP51A1, CYP2A6, CYP2A13, CYP1B1, CYP2C18, CYP2J2, CYP3A5, CYP2R1 and CYP2B6 were used as the P450. Furthermore, a membrane fraction (pCW) derived from E. coli was used as a negative control without human P450. […] The longitudinal axis of FIG. 11 indicates the value obtained by dividing the value of the response with a substrate by the value of the response without a substrate (background oxygen consumption) and standardizing the obtained value. As is clear from the figure, various molecular species show activity toward each compound. […] This also indicates the possibility that activities of human P450 toward pharmaceutical compounds and like compounds can be detected in a parallel manner.

Structure (SMILES): c1ccc2c(c1)c1cccc3ccc4cccc2c4c31 [benzopyrene]
mode of inhibition of 7-ER metabolism (effect on initial reaction velocity) (human CYP1A1 [1]): noncompetitive inhibitor

Structure (SMILES): Cc1ccc(NC(=O)N(C)C)cc1Cl [chlortoluron]
change in fluorescence intensity of the oxygen sensing layer (oxygen consumption due to metabolic reaction) (human CYP1A1 [2]; P450 encapsulated in Ludox silica gel): only a limited increase
change in fluorescence intensity of the oxygen sensing layer (oxygen consumption due to metabolic reaction) (human CYP1A1 [2]; P450 encapsulated in TEOS silica gel): no significant fluorescence increase
change in fluorescence intensity of the oxygen sensing layer (oxygen consumption due to metabolic reaction) (human CYP1A1 [2]; P450 encapsulated in agarose gel, versus NADPH solution without substrate): significantly increased

oxygen sensor response normalized by the response toward a solution without a substrate (peak height, FIG. 11) (CYP3A5): particularly high
Structure (SMILES): COc1cc(CNC(=O)CCCC/C=C/C(C)C)ccc1O [capsaicin]
